From patent US20260000781A1, “FC CONJUGATES INCLUDING AN INHIBITOR OF CD73 AND USES THEREOF” (Cidara Therapeutics, Inc., priority 2022, published 2026) come the findings set out here.

This experiment has as its target T1, CD73 on 4T1 mouse cells (Mus musculus, UniProt Q61503).
T1 construct: host or cells: 4T1
T1 sequence (Q61503 29-551): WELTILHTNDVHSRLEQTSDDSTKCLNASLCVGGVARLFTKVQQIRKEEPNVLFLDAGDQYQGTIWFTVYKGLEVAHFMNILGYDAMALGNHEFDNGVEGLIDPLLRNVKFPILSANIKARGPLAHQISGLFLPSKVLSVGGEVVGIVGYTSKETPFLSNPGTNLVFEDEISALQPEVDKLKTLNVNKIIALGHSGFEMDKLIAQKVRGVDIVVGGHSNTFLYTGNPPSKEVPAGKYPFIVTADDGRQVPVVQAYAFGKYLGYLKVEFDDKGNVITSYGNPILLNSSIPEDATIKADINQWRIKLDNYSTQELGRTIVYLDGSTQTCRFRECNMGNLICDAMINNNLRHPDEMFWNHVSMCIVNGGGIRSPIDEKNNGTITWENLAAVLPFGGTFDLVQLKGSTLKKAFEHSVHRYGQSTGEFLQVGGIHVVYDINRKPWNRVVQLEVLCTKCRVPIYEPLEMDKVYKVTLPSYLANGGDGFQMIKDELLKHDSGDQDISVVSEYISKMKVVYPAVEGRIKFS
Nature of the experiment: CD73 enzyme inhibition assay with mouse 4T1 cells (PiColorLock). The settings on record: 4T1 cancer cells, AMP 100 μM. Type of experiment: cell-based. The protocol: The cell-based CD73 enzyme inhibition assay was performed in a 96-well plate format using the PiColorLock phosphate assay kit in accordance with the manufacturer's instructions (Abcam cat no. 270004). 4T1 mouse cells are a model for stage IV human breast cancer (ATCC CRL-2539) and human peripheral blood mononuclear cells (PBMCs; StemCell Technologies cat no. 70025) from three different donors were assayed. 4T1 cells were washed three times with a phosphate-free CD73 buffer (Lawson et al., 2020), detached from tissue-culture flasks using a cell scraper, and seeded at 5×10^3 cells/well into 96-well tissue culture-treated plates. Human PBMCs were washed three times with phosphate-free CD73 buffer at 125×g for 10 min at room temperature and seeded at 1×10^5 cells/well into 96-well tissue culture-treated plates. Test articles were tested from 0.001 nM to 1,000 nM (4T1 cells) or 0.0001 nM to 100 nM (PBMCs) and incubated with cells for 30 min at 37° C., 5% CO2. AMP (100 μM final concentration) was added to cells and test articles, and the reaction incubated for 3 h and 24 h at 37° C., 5% CO2. The conversion of AMP to adenosine and phosphate in cell-free supernatant was quantified using the PiColorLock kit. Colorimetric detection reagent was added and the phosphate production was measured by reading the absorbance at 635 nm with the EnSpire multimode plate reader (PerkinElmer). Cells without test article (positive control) were included on each plate. Control wells without test article and cells (background) were subtracted from all wells. Percent CD73 inhibition versus inhibitor concentration was plotted using GraphPad Prism Version 8 and IC50's calculated using nonlinear regression analysis (Sigmoidal, 4 PL).

Where two headings read alike, the source gives them in different places.

What is called IC50 is the concentration needed to halve the response being measured. Regarding `COC[C@](CO)(OC[C@H]1O[C@@H](n2ncc3c(NC4CCCC4)nc(Cl)nc32)[C@H](O)[C@@H]1O)P(=O)(O)O` [OP-5244], the IC50 by setting is: (24 h, read-out: 24 h IC50) 24 nM; (read-out: 3 h IC50, 3 h) 1.67 nM.

In the case of `O=P(O)(O)COC[C@H]1O[C@@H](n2ncc3c(N4CC5(CCc6ccccc65)C4)nc(Cl)nc32)[C@H](O)[C@@H]1O` [SHR170008], the IC50 reads like this: (24 h, read-out: 24 h IC50) 114 nM; (read-out: 3 h IC50, 3 h) 8.2 nM.

Regarding `C[C@H](Nc1cc(Cl)nc2c1cnn2[C@@H]1O[C@H](COP(=O)(O)CP(=O)(O)O)[C@@H](O)[C@H]1O)c1ccccc1F` [AB680], the IC50 (24 h, read-out: 24 h IC50) came out at 85.7 nM and the IC50 (3 h IC50 [nM], 3 h) was 6.79 nM.
